In ChEMBL document CHEMBL1152742, “Morpholine-based RGD-cyclopentapeptides as alphavbeta3/alphavbeta5 integrin ligands: role of configuration towards receptor binding affinity” (Bioorg Med Chem, 2009) one finds IC50 data, which are given here for 1 compound.

Experiment [1] addresses Integrin alpha-V/beta-5 (Homo sapiens). As to the kind of experiment: Displacement of [125I]echistatin from integrin alphaVbeta5 receptor in human placenta by microplate scintillation counter.
In another experiment the target is Integrin alpha-V/beta-3 (Homo sapiens, UniProt P05106+P06756).
Chain of Integrin alpha-V/beta-3 (P05106 27-788 limits assumed): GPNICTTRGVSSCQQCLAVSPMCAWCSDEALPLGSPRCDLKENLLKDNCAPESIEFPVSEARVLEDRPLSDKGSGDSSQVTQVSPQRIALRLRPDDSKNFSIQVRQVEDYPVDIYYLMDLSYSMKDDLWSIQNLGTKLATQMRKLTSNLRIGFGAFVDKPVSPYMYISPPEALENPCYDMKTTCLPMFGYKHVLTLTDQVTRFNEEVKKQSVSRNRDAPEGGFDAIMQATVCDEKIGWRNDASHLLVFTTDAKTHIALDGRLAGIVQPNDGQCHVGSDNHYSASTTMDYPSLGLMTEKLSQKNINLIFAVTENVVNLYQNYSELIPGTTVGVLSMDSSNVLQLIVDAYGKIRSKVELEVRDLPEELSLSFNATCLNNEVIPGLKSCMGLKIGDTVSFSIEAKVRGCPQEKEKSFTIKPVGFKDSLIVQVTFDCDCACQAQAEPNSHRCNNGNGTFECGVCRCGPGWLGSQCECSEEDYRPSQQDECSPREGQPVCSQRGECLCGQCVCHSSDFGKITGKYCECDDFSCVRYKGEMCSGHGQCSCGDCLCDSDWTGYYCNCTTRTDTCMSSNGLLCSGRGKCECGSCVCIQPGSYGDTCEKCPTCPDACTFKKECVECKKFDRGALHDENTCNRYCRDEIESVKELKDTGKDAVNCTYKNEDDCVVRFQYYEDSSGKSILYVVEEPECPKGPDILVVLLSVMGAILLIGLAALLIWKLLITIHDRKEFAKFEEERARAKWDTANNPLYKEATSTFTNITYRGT
Chain of Integrin alpha-V/beta-3 (P06756 31-889 partner limits assumed): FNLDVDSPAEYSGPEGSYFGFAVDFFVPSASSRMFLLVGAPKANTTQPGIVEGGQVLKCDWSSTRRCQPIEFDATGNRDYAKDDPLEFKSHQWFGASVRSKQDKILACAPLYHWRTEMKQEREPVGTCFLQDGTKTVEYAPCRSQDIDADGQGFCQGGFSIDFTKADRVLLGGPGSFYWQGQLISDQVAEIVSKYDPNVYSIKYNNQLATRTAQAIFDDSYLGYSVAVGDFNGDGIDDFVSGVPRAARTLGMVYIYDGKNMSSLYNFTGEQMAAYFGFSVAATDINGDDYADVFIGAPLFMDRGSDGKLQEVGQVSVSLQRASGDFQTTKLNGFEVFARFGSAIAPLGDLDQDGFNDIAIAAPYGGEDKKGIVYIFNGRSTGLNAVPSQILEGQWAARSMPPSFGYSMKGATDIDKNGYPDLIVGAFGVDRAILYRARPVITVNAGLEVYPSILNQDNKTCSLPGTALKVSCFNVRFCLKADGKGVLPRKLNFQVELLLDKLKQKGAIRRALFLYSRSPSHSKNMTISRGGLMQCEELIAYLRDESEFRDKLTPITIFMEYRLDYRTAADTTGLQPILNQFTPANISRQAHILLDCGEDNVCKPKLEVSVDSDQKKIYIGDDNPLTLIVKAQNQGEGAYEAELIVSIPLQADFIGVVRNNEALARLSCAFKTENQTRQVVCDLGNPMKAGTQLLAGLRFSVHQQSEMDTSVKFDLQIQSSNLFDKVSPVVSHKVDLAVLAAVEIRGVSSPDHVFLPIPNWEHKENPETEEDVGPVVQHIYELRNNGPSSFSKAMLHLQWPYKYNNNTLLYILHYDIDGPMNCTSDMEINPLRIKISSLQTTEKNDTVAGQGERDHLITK
Chain of Integrin alpha-V/beta-3 (P06756 891-1048 partner limits assumed): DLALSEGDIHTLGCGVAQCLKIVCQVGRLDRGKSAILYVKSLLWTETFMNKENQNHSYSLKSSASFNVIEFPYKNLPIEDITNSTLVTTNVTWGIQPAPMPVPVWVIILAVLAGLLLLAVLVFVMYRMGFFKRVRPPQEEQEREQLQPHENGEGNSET

pIC50: −log10 of the molar value.

Description for Integrin alpha-V/beta-3: Displacement of [125I]echistatin from integrin alphaVbeta3 receptor in human placenta by microplate scintillation counter

Take `NC(N)=NCCC[C@@H]1NC(=O)CNC(=O)[C@H](CC(=O)O)N[C@@H]2CCC[C@@H]3CC[C@@H](C1=O)N3C2=O`: the pIC50 in experiment [1] was 9.05; against Integrin alpha-V/beta-3, 8.25.

A word on the pIC50: it is −log10 of the IC50, conventionally taken in molar units. A lower pIC50 goes with a large IC50.
